Source: patent US20250129078A1, “ERBB2 INHIBITORS” (Cogent Biosciences, Inc., priority 2023, published 2025)
pIC50: −log10 of the molar value.

Molecular target: EGFR WT (Homo sapiens (Human), UniProt P00533)
Assay: ErbB enzyme assay (CisBio HTRF-KinEASE-TK), EGFR WT
Format: biochemical
Details: ATP at Km (25 μM), 1 h incubation
In short: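 Tyrosine kinase HTRF, 1 h RT reaction → quench (Sa-XL665/TK-Ab-Cryptate) → 1 h RT → 655/620 ratio.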

EGFR WT, sequence (P00533 25-1210): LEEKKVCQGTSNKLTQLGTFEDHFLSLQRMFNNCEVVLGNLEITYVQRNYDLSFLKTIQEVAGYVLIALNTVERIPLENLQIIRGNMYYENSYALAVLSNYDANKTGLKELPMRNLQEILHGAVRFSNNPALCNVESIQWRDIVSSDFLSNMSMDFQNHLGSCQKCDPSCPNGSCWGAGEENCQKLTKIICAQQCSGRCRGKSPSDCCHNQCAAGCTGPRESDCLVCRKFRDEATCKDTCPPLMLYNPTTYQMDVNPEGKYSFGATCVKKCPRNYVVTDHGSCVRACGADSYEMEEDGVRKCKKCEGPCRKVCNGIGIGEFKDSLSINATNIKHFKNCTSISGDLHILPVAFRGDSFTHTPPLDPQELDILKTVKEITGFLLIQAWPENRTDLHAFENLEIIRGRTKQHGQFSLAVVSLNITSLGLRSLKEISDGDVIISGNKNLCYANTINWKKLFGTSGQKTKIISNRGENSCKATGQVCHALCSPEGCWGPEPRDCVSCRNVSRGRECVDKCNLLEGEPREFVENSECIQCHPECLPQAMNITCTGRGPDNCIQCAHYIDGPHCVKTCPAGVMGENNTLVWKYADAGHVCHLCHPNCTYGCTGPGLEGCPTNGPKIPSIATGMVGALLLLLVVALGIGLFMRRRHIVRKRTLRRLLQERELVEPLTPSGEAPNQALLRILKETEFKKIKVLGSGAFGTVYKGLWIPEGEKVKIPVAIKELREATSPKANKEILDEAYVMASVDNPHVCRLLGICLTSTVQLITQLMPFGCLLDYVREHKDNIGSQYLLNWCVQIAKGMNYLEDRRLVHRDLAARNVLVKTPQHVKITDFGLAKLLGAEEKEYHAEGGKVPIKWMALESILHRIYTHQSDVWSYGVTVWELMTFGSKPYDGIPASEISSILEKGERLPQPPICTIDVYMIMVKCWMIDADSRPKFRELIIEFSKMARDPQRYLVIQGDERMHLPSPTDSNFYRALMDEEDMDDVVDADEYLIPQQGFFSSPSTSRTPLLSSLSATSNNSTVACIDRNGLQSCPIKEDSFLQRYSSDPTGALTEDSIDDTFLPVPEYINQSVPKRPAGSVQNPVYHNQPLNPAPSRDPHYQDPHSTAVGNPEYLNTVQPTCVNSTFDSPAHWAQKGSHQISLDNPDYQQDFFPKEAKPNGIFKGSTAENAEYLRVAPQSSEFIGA

pIC50	SMILES
6.30 to 7.00	C=CC(=O)N1CCN(c2ncc3ncnc(Nc4ccc(Oc5cc6nnn(C)c6cc5F)c(C)c4)c3n2)CC1 [Compound 190, 1-(4-(8-((4-((6-fluoro-1-methyl-1H-benzo[d][1,2,3]triazol-5-yl)oxy)-3-methylphenyl)amino)pyrimido[5,4-d]pyrimidin-2-yl)piperazin-1-yl)prop-2-en-1-one]
≤ 6.00	C=C(F)C(=O)N1CCN(c2ncc3ncnc(Nc4ccc(Oc5ccc6c(c5)nnn6C)c(C)c4)c3n2)C[C@@H]1COC [Compound 193, (R)-2-fluoro-1-(2-(methoxymethyl)-4-(8-((3-methyl-4-((1-methyl-1H-benzo[d][1,2,3]triazol-5-yl)oxy)phenyl)amino)pyrimido[5,4-d]pyrimidin-2-yl)piperazin-1-yl)prop-2-en-1-one]
> 7.30	C=CC(=O)N[C@]1(C)CCCN(c2ncc3ncnc(Nc4ccc(Oc5ccc6c(c5)nnn6C)c(C)c4)c3n2)C1 [Compound 200, (R)-N-(3-methyl-1-(8-((3-methyl-4-((1-methyl-1H-benzo[d][1,2,3]triazol-5-yl)oxy)phenyl)amino)pyrimido[5,4-d]pyrimidin-2-yl)piperidin-3-yl)acrylamide]
≤ 6.00	C=C(F)C(=O)N1CCN(c2ncc3ncnc(Nc4ccc(Oc5ccc6c(c5)nnn6C)c(C)c4)c3n2)C[C@H]1COC [Compound 211, (S)-2-fluoro-1-(2-(methoxymethyl)-4-(8-((3-methyl-4-((1-methyl-1H-benzo[d][1,2,3]triazol-5-yl)oxy)phenyl)amino)pyrimido [5,4-d]pyrimidin-2-yl)piperazin-1-yl) prop-2-en-1-one]
7.00 to 7.30	Cc1cc(Nc2ncnc3cnc(N4CCN(C(=O)/C=C/C(F)F)CC4)nc23)ccc1Oc1ccc2c(c1)nnn2C [Compound 216, 4,4-difluoro-1-(4-(8-((3-methyl-4-((1-methyl-1H-benzo[d][1,2,3]triazol-5-yl)oxy)phenyl)amino)pyrimido [5,4-d]pyrimidin-2-yl)piperazin-1-yl)but-2-en-1-one]
> 7.30	Cc1cc(Nc2ncnc3cnc(N4CCN(C(=O)/C=C/C(F)(F)F)CC4)nc23)ccc1Oc1ccc2c(c1)nnn2C [Compound 217, 4,4,4-trifluoro-1-(4-(8-((3-methyl-4-((1-methyl-1H-benzo[d][1,2,3]triazol-5-yl)oxy)phenyl)amino)pyrimido [5,4-d]pyrimidin-2-yl)piperazin-1-yl) but-2-en-1-one]
> 7.30	C=CC(=O)N1CCN(c2ncc3ncnc(Nc4ccc(Oc5ccc6c(c5)nnn6C)c(Cl)c4F)c3n2)CC1 [Compound 220, 1-(4-(8-((3-chloro-2-fluoro-4-((1-methyl-1H-benzo[d][1,2,3]triazol-5-yl)oxy)phenyl)amino)pyrimido[5,4-d]pyrimidin-2-yl)piperazin-1-yl)prop-2-en-1-one]
≤ 6.00	C=CC(=O)N1CCCN(c2ncc3ncnc(Nc4ccc(Oc5ccc6c(c5)nnn6C)c(C)c4)c3n2)C[C@H]1C [Compound 227, (R)-1-(2-methyl-4-(8-((3-methyl-4-((1-methyl-1H-benzo[d][1,2,3]triazol-5-yl)oxy)phenyl)amino)pyrimido[5,4-d]pyrimidin-2-yl)-1,4-diazepan-1-yl)prop-2-en-1-one]
≤ 6.00	Cc1cc(Nc2ncnc3cnc(N4CCN(C(=O)/C=C/Cn5cccn5)CC4)nc23)ccc1Oc1ccc2c(c1)nnn2C [Compound 233, (E)-1-(4-(8-((3-methyl-4-((1-methyl-1H-benzo[d][1,2,3]triazol-5-yl)oxy)phenyl)amino)pyrimido[5,4-d]pyrimidin-2-yl)piperazin-1-yl)-4-(1H-pyrazol-1-yl)but-2-en-1-one]

The next lines start with the molecule.

SMILES	pIC50
C=CC(=O)N1CCN(c2ncc3ncnc(Nc4ccc(Oc5cc(F)c6c(c5)nnn6C)c(C)c4F)c3n2)C[C@@H]1C1CC1 [Compound 192, (S)-1-(2-cyclopropyl-4-(8-((2-fluoro-4-((7-fluoro-1-methyl-1H-benzo[d][1,2,3]triazol-5-yl)oxy)-3-methylphenyl)amino)pyrimido[5,4-d]pyrimidin-2-y1)piperazin-1-yl)prop-2-en-1-one]	6.00 to 6.30
C=CC(=O)N1CCN(c2ncc3ncnc(Nc4cc(F)c(Oc5ccc6c(c5)nnn6C)c(Cl)c4)c3n2)C[C@H]1C [Compound 194, (R)-1-(4-(8-((3-chloro-5-fluoro-4-((1-methyl-1H-benzo[d][1,2,3]triazol-5-yl)oxy)phenyl)amino)pyrimido[5,4-d]pyrimidin-2-y1)-2-methylpiperazin-1-yl)prop-2-en-1-one]	> 7.30
C=CC(=O)N1CCN(c2ncc3ncnc(Nc4ccc(Oc5ccc6c(c5)nnn6C(F)(F)F)c(C)c4)c3n2)C[C@H]1C [Compound 195, (R)-1-(2-methyl-4-(8-((3-methyl-4-((1-(trifluoromethyl)-1H-benzo[d][1,2,3]triazol-5-yl)oxy)phenyl)amino)pyrimido[5,4-d]pyrimidin-2-yl)piperazin-1-yl)prop-2-en-1-one]	6.30 to 7.00
C=CC(=O)N1CCN(c2ncc3ncnc(Nc4ccc(Oc5cc(F)c6c(c5)nnn6C)c(C)c4F)c3n2)C[C@H]1C1CC1 [Compound 197, (R)-1-(2-cyclopropyl-4-(8-((2-fluoro-4-((7-fluoro-1-methyl-1H-benzo[d][1,2,3]triazol-5-yl)oxy)-3-methylphenyl)amino)pyrimido[5,4-d]pyrimidin-2-yl)piperazin-1-yl)prop-2-en-1-one]	6.30 to 7.00
C=CC(=O)N[C@H]1[C@@H]2C[C@H]1CN(c1ncc3ncnc(Nc4ccc(Oc5ccc6c(c5)nnn6C)c(C)c4)c3n1)C2 [Compound 207, N-((1R,5S,6r)-3-(8-((3-methyl-4-((1-methyl-1H-benzo[d][1,2,3]triazol-5-yl)oxy)phenyl)amino)pyrimido[5,4-d]pyrimidin-2-yl)-3-azabicyclo[3.1.1]heptan-6-yl)acrylamide]	6.30 to 7.00
C=CC(=O)N[C@@H]1[C@@H]2C[C@H]1CN(c1ncc3ncnc(Nc4ccc(Oc5ccc6c(c5)nnn6C)c(C)c4)c3n1)C2 [Compound 208, N-((1R,5S,6s)-3-(8-((3-methyl-4-((1-methyl-1H-benzo[d][1,2,3]triazol-5-yl)oxy)phenyl)amino)pyrimido[5,4-d]pyrimidin-2-yl)-3-azabicyclo[3.1.1]heptan-6-yl)acrylamide]	≤ 6.00
C=C(COC)C(=O)N1C2CC1CN(c1ncc3ncnc(Nc4ccc(Oc5ccc6c(c5)nnn6C)c(C)c4)c3n1)C2 [Compound 213, 2-(methoxymethyl)-1-(3-(8-((3-methyl-4-((1-methyl-1H-benzo[d][1,2,3]triazol-5-yl)oxy)phenyl)amino)pyrimido [5,4-d]pyrimidin-2-yl)-3,6-diazabicyclo[3.1.1]heptan-6-yl)prop-2-en-1-one]	≤ 6.00
C=C(COC)C(=O)NC1(C)CCN(c2ncc3ncnc(Nc4ccc(Oc5ccc6c(c5)nnn6C)c(C)c4)c3n2)CC1 [Compound 215, 2-(methoxy-methyl)-N-(4-methyl-1-(8-((3-methyl-4-((1-methyl-1H-benzo[d][1,2,3]triazol-5-yl)oxy)phenyl)amino)pyrimido [5,4-d]pyrimidin-2-yl)piperidin-4-yl)acrylamide]	≤ 6.00
C=CC(=O)N[C@H]1CN(c2ncc3ncnc(Nc4ccc(Oc5ccc6c(c5)nnn6C)c(C)c4F)c3n2)CC[C@@H]1C [Compound 229, N-((3R,4S)-1-(8-((2-fluoro-3-methyl-4-((1-methyl-1H-benzo[d][1,2,3]triazol-5-yl)oxy)phenyl)amino)pyrimido[5,4-d]pyrimidin-2-yl)-4-methylpiperidin-3-yl)acrylamide]	6.30 to 7.00
C=CC(=O)N[C@@H]1CN(c2ncc3ncnc(Nc4ccc(Oc5ccc6c(c5)nnn6C)c(C)c4F)c3n2)CC[C@H]1C [Compound 230, N-((3S,4R)-1-(8-((2-fluoro-3-methyl-4-((1-methyl-1H-benzo[d][1,2,3]triazol-5-yl)oxy)phenyl)amino)pyrimido[5,4-d]pyrimidin-2-yl)-4-methylpiperidin-3-yl)acrylamide]	6.30 to 7.00
C=CC(=O)N1CCN(c2ncc3ncnc(Nc4ccc(Oc5cnn6ccnc6c5)c(C)c4)c3n2)CC1 [Compound 234, 1-(4-(8-((4-(imidazo[1,2-b]pyridazin-7-yloxy)-3-methylphenyl)amino)pyrimido[5,4-d]pyrimidin-2-yl)piperazin-1-yl)prop-2-en-1-one]	> 7.30
C=CC(=O)N1CCN(c2ncc3ncnc(Nc4ccc(Oc5cc6nnn(C)c6c(C)c5F)c(C)c4)c3n2)C[C@H]1C [Compound 236, (R)-1-(4-(8-((4-((6-fluoro-1,7-dimethyl-1H-benzo[d][1,2,3]triazol-5-yl)oxy)-3-methylphenyl)amino)pyrimido[5,4-d]pyrimidin-2-yl)-2-methylpiperazin-1-yl)prop-2-en-1-one]	6.30 to 7.00
C=CC(=O)N1CCN(c2ncc3ncnc(Nc4ccc(Oc5cnn6ccnc6c5)c(C)c4F)c3n2)CC1 [Compound 237, 1-(4-(8-((2-fluoro-4-(imidazo[1,2-b]pyridazin-7-yloxy)-3-methylphenyl)amino)pyrimido[5,4-d]pyrimidin-2-yl)piperazin-1-yl)prop-2-en-1-one]	> 7.30
C=C1CCN(C2CCN(c3ccc4ncnc(Nc5ccc(Oc6ccc7c(c6)nnn7C)c(C)c5F)c4n3)CC2)C1=O [Compound 241, 1-(1-(4-((2-fluoro-3-methyl-4-((1-methyl-1H-benzo[d][1,2,3]triazol-5-yl)oxy)phenyl)amino)pyrido[3,2-d]pyrimidin-6-yl)piperidin-4-yl)-3-methylenepyrrolidin-2-one]	≤ 6.00
C=CC(=O)N1CCN(c2ccc3ncnc(Nc4cc(Cl)c(Oc5ccc6c(c5)nnn6C)cc4F)c3n2)CC1 [Compound 244, 1-(4-(4-((5-chloro-2-fluoro-4-((1-methyl-1H-benzo[d][1,2,3]triazol-5-yl)oxy)phenyl)amino)pyrido[3,2-d]pyrimidin-6-yl)piperazin-1-yl)prop-2-en-1-one]	6.30 to 7.00
C=CC(=O)N1[C@H](C)CN(c2ccc3ncnc(Nc4ccc(Oc5ccc6c(c5)nnn6C)c(C)c4)c3n2)C[C@H]1C [Compound 248, 1-((2R,6R)-2,6-dimethyl-4-(4-((3-methyl-4-((1-methyl-1H-benzo[d][1,2,3]triazol-5-yl)oxy)phenyl)amino)pyrido[3,2-d]pyrimidin-6-yl)piperazin-1-yl)prop-2-en-1-one]	≤ 6.00
